This is an account of results in patent US7202239B2, “Cyclohexylphenyl carboxamides tocolytic oxytocin receptor antagonists” (Wyeth, priority 2001, dated 2007).

The target in the assay is human V2 vasopressin receptor subtype (Homo sapiens, UniProt P30518). The experiment in a line: Vasopressin binding in CHO cell membranes expressing human vasopressin V2 subtype receptors. The settings on record: 100 nM, [3H]arginine vasopressin. The source says:
Vasopressin Binding in Chinese Hamster Ovary Cell Membranes Expressing Human Vasopressin V2 Subtype Receptors
Chinese Hamster Ovary (CHO) cells stably transfected with the human V2 subtype receptors were obtained from M. Thibonnier, Case Western Reserve University School of Medicine, Cleveland, Ohio.
A. Passaging and Amplification of Cells:
CHO cells transfected with the human vasopressin V2 subtype receptors obtained from M. Thibonnier (pZeoSV vector) are allowed to grow to confluency (approx. >90%) in T-150 flasks under sterile conditions, in a cell culture medium of F-12 Nutrient Mixture (HAM) with L-glutamine (Gibco Cat. # 11765-054) containing 15 mM HEPES (Gibco Cat. # 15630-080), 1% antibiotic/antimycotic (add 5 mL 100×, Gibco Cat. # 15240-062 per 500 mL F-12), 250 μg/mL Zeocin (add 1.25 mL of 100 mg/mL Invitrogen R-250-01 per 500 mL F-12) and 10% Fetal Bovine Serum (Qualified, heat inactivated, Gibco Cat. # 16140-063). The medium is removed by aspiration and the cells washed with 10 mL of Hank's Balanced Salt solution (Gibco Cat. # 14175-095). The salt solution is removed by aspiration and the cells trypsinized with 5 mL of trypsin-EDTA (0.05% trypsin, 0.53 mM EDTA-4Na, Gibco Cat. # 25300-070) for 1 min. The trypsin is removed by aspiration and the cells dislodged by tapping. Cell Culture medium (e.g. 30 mL for 1:30 split) is immediately added and mixed well to inactivate trypsin. 1 mL of detached cells is added to new culture flasks containing fresh Cell Culture medium (e.g. into 25 mL per T-150 flask), and mixed gently. The cells are incubated at 37° C. in 5% CO2. The medium is changed at 3 to 4 day interval (or as appropriate). The cells grow to confluency (approx. >75%–95%) within 7–8 days. All steps are done under sterile conditions. B. Membrane Preparation: The cells are washed twice gently with Hank's Balanced Salt solution (e.g. use 10 mL per T-150 flask). The excess solution is removed and the cells bathed for 15–30 min. in an enzyme-free Cell Dissociation Buffer (e.g. use 8 mL Hank's Based, Gibco Cat. # 13150-016 per T-150 flask) until cells are loosened. The contents are transferred to centrifuge tubes (50 mL) kept in an ice bath. All subsequent steps are done at 4° C. The tubes are centrifuged at 300× g for 15 min (1380 rpm on SORVAL, Model RT6000D, using the rotor for 50 mL tubes). The supernatant is discarded and the cells suspended in homogeneizing buffer(10 mM Tris-HCl containing 0.25 M sucrose and 1 mM EDTA, pH 7.4) ensuring that the volume of the buffer is about ten times the volume of the cell pellet. The cells are pooled into a centrifuge tube (50 mL) and homogenized with a Polytron at setting 6 for 10 sec. The homogenate is transferred into a Potter-Elvjehm homogeneizer and homogenized with 3 strokes. The homogenate is centrifuged at 1500×g for 60 min at 4° C. (3100 rpm using SORVAL, model RT6000D, using the rotor for 50 mL tubes). The pellet is discarded. The supernatant is centrifuged at 100,000×g for 60 min. at 4° C. (Beckman L8-80M ultracentrifuge; spin at 37,500 rpm with rotor type 70 Ti for 50 mL tubes; 38,000 rpm with type 80Ti for 15 mL tubes; or 35,800 rpm with rotor type 45Ti). The supernantant is discarded and the pellet suspended in 3 to 4 mL of Tris buffer (50 mM TRIS-HCl, pH 7.4). The protein content is estimated by the Bradford or Lowry method. The volume of the membrane suspension is adjusted with the membrane buffer (50 mM Tris-HCl containing 0.1% BSA and 0.1 mM PMSF) to give 3.0 mg/mL (or as appropriate) of protein. The membranes are aliquoted and stored at −70° C. C. Radioligand Binding Assay: In wells of a 96-well format microtiter plate, is added 90, 110 or 130 μL (to make up a final volume of 200 μL) of assay buffer containing 50 mM of Tris-HCl (pH 7.4), […], 1 mg % aprotinin, 1 mg % leupeptin, 2 mg % 1,10-phenanthroline, 10 mg % trypsin inhibitor, and 0.1 mM PMSF. The inhibitors are added on the day of the experiment. […]

Chain of human V2 vasopressin receptor subtype (P30518 whole entry): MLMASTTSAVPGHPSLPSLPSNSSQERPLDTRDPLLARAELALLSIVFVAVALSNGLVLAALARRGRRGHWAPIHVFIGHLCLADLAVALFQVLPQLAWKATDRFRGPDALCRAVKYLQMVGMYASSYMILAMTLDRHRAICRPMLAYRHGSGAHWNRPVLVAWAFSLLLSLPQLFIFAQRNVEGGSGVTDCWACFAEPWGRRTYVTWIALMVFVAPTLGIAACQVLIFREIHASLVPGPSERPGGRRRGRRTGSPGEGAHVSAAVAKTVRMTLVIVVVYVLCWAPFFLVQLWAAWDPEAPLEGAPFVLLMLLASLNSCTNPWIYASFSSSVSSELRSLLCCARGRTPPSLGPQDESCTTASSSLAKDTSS

`CN1CCCC1CCNC(=O)c1ccc2n1Cc1ccccc1N(C(=O)c1ccc(C3CCCCC3)cc1)C2` (centres unmarked) [Example 38, 10-(4-Cyclohexyl-benzoyl)-N-[2-(1-methyl-2-pyrrolidinyl)ethyl]-10,11-dihydro-5H-pyrrolo[2,1-c][1,4]benzodiazepine-3-carboxamide]: the inhibition at 0.1 µM came to 1%.
The same measure, in the same setting: the figure for `CN1CCC(N(C)C(=O)c2ccc3n2Cc2ccccc2N(C(=O)c2ccc(C4CCCCC4)cc2)C3)CC1` [Example 39, 10-(4-Cyclohexyl-benzoyl)-N-methyl-N-(1-methyl-4-piperidinyl)-10,11-dihydro-5H-pyrrolo[2,1-c][1,4]benzodiazepine-3-carboxamide] is 13%; for `CN1CCC(N(C)C(=O)c2ccc3n2Cc2ccccc2N(C(=O)c2ccc(C4CCCCC4)cc2)C3)C1` (centres unmarked) [Example 40, 10-(4-Cyclohexyl-benzoyl)-N-methyl-N-(1-methyl-3-pyrrolidinyl)-10,11-dihydro-5H-pyrrolo[2,1-c][1,4]benzodiazepine-3-carboxamide] it is -3%; for `CN(C)CCN1CCN(C(=O)c2ccc3n2Cc2ccccc2N(C(=O)c2ccc(C4CCCCC4)cc2)C3)CC1` [Example 41, [10-(4-Cyclohexyl-benzoyl)-10,11-dihydro-5H-pyrrolo[2,1-c][1,4]benzodiazepin-3-yl]{4-[2-(dimethylamino)ethyl]-1-piperazinyl}methanone] it is 6%.
As to `O=C(c1ccc2n1Cc1ccccc1N(C(=O)c1ccc(C3CCCCC3)cc1)C2)N1CCN(CCN2CCOCC2)CC1` [Example 42, [10(4-Cyclohexyl-benzoyl)-10,11-dihydro-5H-pyrrolo[2,1-c][1,4]benzodiazepin-3-yl]{4-[2-(4-morpholinyl)ethyl]-1-piperazinyl}methanone], the inhibition at 0.1 µM was determined as 4%.
The same measure, in the same setting: the figure for `C=CCN1CCN(C(=O)c2ccc3n2Cc2ccccc2N(C(=O)c2ccc(C4CCCCC4)cc2)C3)CC1` [Example 43, (4-Allyl-1-piperazinyl)[10-(4-cyclohexyl-benzoyl)-10,11-dihydro-5H-pyrrolo[2,1-c][1,4]benzodiazepin-3-yl]methanone] is 8%; for `CC(C)N1CCN(C(=O)c2ccc3n2Cc2ccccc2N(C(=O)c2ccc(C4CCCCC4)cc2)C3)CC1` [Example 44, [10-(4-Cyclohexyl-benzoyl)-10,11-dihydro-5H-pyrrolo[2,1-c][1,4]benzodiazepin-3-yl](4-isopropyl-1-piperazinyl)methanone] it is 1%; for `CN(C)CCCN1CCN(C(=O)c2ccc3n2Cc2ccccc2N(C(=O)c2ccc(C4CCCCC4)cc2)C3)CC1` [Example 45, [10-(4-Cyclohexyl-benzoyl)-10,11-dihydro-5H-pyrrolo[2,1-c][1,4]benzodiazepin-3-yl]{4-[3-(dimethylamino)propyl]-1-piperazinyl}methanone] it is 10%.
Regarding `O=C(c1ccc(C2CCCCC2)cc1)N1Cc2ccc(C(=O)N3CCC[C@H]3CN3CCCC3)n2Cc2ccccc21` [Example 46, [10-(4-Cyclohexyl-benzoyl)-10,11-dihydro-5H-pyrrolo[2,1-c][1.4]benzodiazepin-3-yl][(2S)-2-(1-pyrrolidinylmethyl)pyrrolidinyl]methanone], the “V2 % inhibition at 100 nM” value is on record as 14%.
Still for that read-out and setting: for `CN(C)[C@@H]1CCN(C(=O)c2ccc3n2Cc2ccccc2N(C(=O)c2ccc(C4CCCCC4)cc2)C3)C1` [Example 47, [10-(4-Cyclohexyl-benzoyl)-10,11-dihydro-5H-pyrrolo[2,1-C][1,4]benzodiazepin-3-yl][(3R)-3-(dimethylamino)pyrrolidinyl]methanone] the value was 0%; for `O=C(c1ccc2n1Cc1ccccc1N(C(=O)c1ccc(C3CCCCC3)cc1)C2)N1CCN(CCO)CC1` [Example 48, [10-(4-Cyclohexyl-benzoyl)-10,11-dihydro-5H-pyrrolo[2,1-c][1,4]benzodiazepin-3-y][4-(2-hydroxyethyl)-1-piperazinyl]methanone], 14%.
Turning to `O=C(NCCc1ccccn1)c1ccc2n1Cc1ccccc1N(C(=O)c1ccc(C3CCCCC3)cc1)C2` [Example 49, 10-(4-Cyclohexyl-benzoyl)-N-[2-(2-pyridinyl)ethyl]-10,11-dihydro-5H-pyrrolo[2,1-c][1,4]benzodiazepine-3-carboxamide], the inhibition at 0.1 µM was found to be 10%.
For `O=C(NCc1ccccn1)c1ccc2n1Cc1ccccc1N(C(=O)c1ccc(C3CCCCC3)cc1)C2` [Example 50, 10-(4-Cyclohexyl-benzoyl)-N-(2-pyridinylmethyl)-10,11-dihydro-5H-pyrrolo[2,1-c][1,4]benzodiazepine-3-carboxamide], the inhibition at 0.1 µM is 15%.
Still for that read-out and setting: the figure for `O=C(NCc1cccnc1)c1ccc2n1Cc1ccccc1N(C(=O)c1ccc(C3CCCCC3)cc1)C2` [Example 51, 10-(4-Cyclohexyl-benzoyl)-N-(3-pyridinylmethyl)-10,11-dihydro-5H-pyrrolo [2,1-c][1,4]benzodiazepine-3-carboxamide] is 7%.
Same read-out and setting: the figure for `CN(CCc1ccccn1)C(=O)c1ccc2n1Cc1ccccc1N(C(=O)c1ccc(C3CCCCC3)cc1)C2` [Example 52, 10-(4-Cyclohexyl-benzoyl)-N-methyl-N-[2-(2-pyridinyl)-ethyl]-10,11-dihydro-5H-pyrrolo[2,1-c][1,4]benzodiazepine-3-carboxamide] is 8%; for `O=C(NCc1ccncc1)c1ccc2n1Cc1ccccc1N(C(=O)c1ccc(C3CCCCC3)cc1)C2` [Example 53, 10-(4-Cyclohexyl-benzoyl)-N-(4-pyridinylmethyl)-10,11-dihydro-5H-pyrrolo[2,1-c][1,4]benzodiazepine-3-carboxamide] it is 2%.
`O=C(c1ccc2n1Cc1ccccc1N(C(=O)c1ccc(C3CCCCC3)cc1)C2)N1CCN(c2ccncc2)CC1` [Example 54, [10-(4-Cyclohexyl-benzoyl)-10,11-dihydro-5H-pyrrolo[2,1-c][1,4]benzpdiazepin-3-yl][4-(4-pyridinyl)-1-piperazinyl]-methanone]: the “V2 % inhibition at 100 nM” value was 6%.
As to `CN(CCc1ccncc1)C(=O)c1ccc2n1Cc1ccccc1N(C(=O)c1ccc(C3CCCCC3)cc1)C2` [Example 55, 10-(4-Cyclohexyl-benzoyl)-N-methyl-N-[2(4-pyridinyl)ethyl]-10,11-dihydro-5H-pyrrolo[2,1-c][1,4]benzodiazepine-3-carboxamide], the inhibition at 0.1 µM was found to be 6%.
Still for that read-out and setting: for `O=C(c1ccc(C2CCCCC2)cc1)N1Cc2ccc(C(=O)n3ccnc3)n2Cc2ccccc21` [Example 56, 1H-Imidazol-1-yl-[10-(4-cyclohexyl-benzoyl)-10,11-dihydro-5H-pyrrolo[2,1-c][1,4]benzodiazepin-3-yl]-methanone] the value was -2%.
As to `CN(Cc1cccnc1)C(=O)c1ccc2n1Cc1ccccc1N(C(=O)c1ccc(C3CCCCC3)cc1)C2` [Example 57, 10-(4-Cyclohexyl-benzoyl)-N-methyl-N-(3-pyridinylmethyl)-10,11-dihydro-5H-pyrrolo[2,1-c][1,4]benzodiazepine-3-carboxamide], the inhibition at 0.1 µM was 4%.

In general, inhibition refers to the relative decrease from the control value, in per cent.
